Source: paper PMC11876601 (Molecular Systems Biology, 2025)
“And” between values parts separate entries of the source, which are not always exact repeats. Equal entries are not always repeated. Where two headings read alike, the source gives them in different places.

System: AsPC-1 cells
Experiment: Cell proliferation assay, chemodrug + ATR inhibitor (Incucyte confluence, 72 h);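 also: underlying read-out for every value is AsPC-1 confluence after 72 h incubation at 37 °C and 5% CO2, divided by that well's starting confluence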
Conditions: for Curve bottom / Curve slope / Curve top / EC50 / pEC50: AsPC-1; for Ratio: Response / Response vehicle (mean)
[1] = Experiment GEM (no ATRi), single replicates R1-R3
[2] = Experiment GEM+ATRi_dose1, single replicates R1-R3
[3] = Experiment GEM+ATRi_dose2, single replicates R1-R3
[4] = Experiment GEM+ATRi_dose3, single replicates R1-R3
[5] = Drug 0 nM + ATRi 3 nM (ATRi alone, GEM+ATRi_dose1 series), replicates R1-R3
[6] = Drug 0 nM + ATRi 10 nM (ATRi alone, GEM+ATRi_dose2 series), replicates R1-R3
[7] = Drug 0 nM + ATRi 30 nM (ATRi alone, GEM+ATRi_dose3 series), replicates R1-R3
[8] = Drug 1 nM + ATRi 3 nM (GEM+ATRi_dose1), replicates R1-R3
[9] = Drug 1 nM + ATRi 10 nM (GEM+ATRi_dose2), replicates R1-R3
[10] = Drug 1 nM + ATRi 30 nM (GEM+ATRi_dose3), replicates R1-R3
[11] = Drug 1 nM alone, ATRi 0 nM (experiment 'GEM'), replicates R1-R3
[12] = Drug 3 nM + ATRi 3 nM (GEM+ATRi_dose1), replicates R1-R3
[13] = Drug 3 nM + ATRi 10 nM (GEM+ATRi_dose2), replicates R1-R3
[14] = Drug 3 nM + ATRi 30 nM (GEM+ATRi_dose3), replicates R1-R3
[15] = Drug 3 nM alone, ATRi 0 nM (experiment 'GEM'), replicates R1-R3
[16] = Drug 10 nM + ATRi 3 nM (GEM+ATRi_dose1), replicates R1-R3
[17] = Drug 10 nM + ATRi 10 nM (GEM+ATRi_dose2), replicates R1-R3
[18] = Drug 10 nM + ATRi 30 nM (GEM+ATRi_dose3), replicates R1-R3
[19] = Drug 10 nM alone, ATRi 0 nM (experiment 'GEM'), replicates R1-R3
[20] = Drug 30 nM + ATRi 3 nM (GEM+ATRi_dose1), replicates R1-R3
[21] = Drug 30 nM + ATRi 10 nM (GEM+ATRi_dose2), replicates R1-R3
[22] = Drug 30 nM + ATRi 30 nM (GEM+ATRi_dose3), replicates R1-R3
[23] = Drug 30 nM alone, ATRi 0 nM (experiment 'GEM'), replicates R1-R3
[24] = Drug 100 nM + ATRi 3 nM (GEM+ATRi_dose1), replicates R1-R3
[25] = Drug 100 nM + ATRi 10 nM (GEM+ATRi_dose2), replicates R1-R3
[26] = Drug 100 nM + ATRi 30 nM (GEM+ATRi_dose3), replicates R1-R3
[27] = Drug 100 nM alone, ATRi 0 nM (experiment 'GEM'), replicates R1-R3
[28] = Drug 300 nM + ATRi 3 nM (GEM+ATRi_dose1), replicates R1-R3
[29] = Drug 300 nM + ATRi 10 nM (GEM+ATRi_dose2), replicates R1-R3
[30] = Drug 300 nM + ATRi 30 nM (GEM+ATRi_dose3), replicates R1-R3
[31] = Drug 300 nM alone, ATRi 0 nM (experiment 'GEM'), replicates R1-R3
[32] = Drug 1000 nM + ATRi 3 nM (GEM+ATRi_dose1), replicates R1-R3
[33] = Drug 1000 nM + ATRi 10 nM (GEM+ATRi_dose2), replicates R1-R3
[34] = Drug 1000 nM + ATRi 30 nM (GEM+ATRi_dose3), replicates R1-R3
[35] = Drug 1000 nM alone, ATRi 0 nM (experiment 'GEM'), replicates R1-R3
[36] = Drug 3000 nM + ATRi 3 nM (GEM+ATRi_dose1), replicates R1-R3
[37] = Drug 3000 nM + ATRi 10 nM (GEM+ATRi_dose2), replicates R1-R3
[38] = Drug 3000 nM + ATRi 30 nM (GEM+ATRi_dose3), replicates R1-R3
[39] = Drug 3000 nM alone, ATRi 0 nM (experiment 'GEM'), replicates R1-R3
[40] = chemodrug 30 nM alone (ATRi 0 nM)
[41] = chemodrug 100 nM alone (ATRi 0 nM)
[42] = chemodrug 300 nM alone (ATRi 0 nM)
[43] = chemodrug 1000 nM alone (ATRi 0 nM)
[44] = chemodrug 3000 nM alone (ATRi 0 nM)

Protocol: Cells were seeded at 5000 cells/well into 96-well flat bottom plates (Eppendorf) and allowed to attach overnight. […] Cells were incubated for 72 h at 37 °C and 5% CO2. Cell confluence readouts at 72 h were either normalized to their initial confluence using the Incucyte software (AsPC-1) or used without prior normalization (all others). […] Each experiment was performed in triplicates, the data was plotted as mean ± standard deviation (s.d.).

Compound: N.N.[Cl][Pt][Cl] [Cisplatin]
- Curve bottom [1]: 1.04 and 1.01 and 1.00
- Curve slope [1]: 1.30 and 2.18 and 1.82
- Curve top [1]: 0.20 and 0.35 and 0.27
- EC50 [1]: 513 nM and 218 nM and 302 nM
- pEC50 [1]: 6.29 and 6.66 and 6.52
- Curve bottom [2]: 1.05 and 1.02 and 1.03
- Curve slope [2]: 1.41 and 1.64 and 1.76
- Curve top [2]: 0.25 and 0.33 and 0.27
- EC50 [2]: 172 nM and 118 nM and 151 nM
- pEC50 [2]: 6.76 and 6.93 and 6.82
- Curve bottom [3]: 1.03 and 1.00 and 1.02
- Curve slope [3]: 1.60 and 1.79 and 1.21
- Curve top [3]: 0.28 and 0.31 and 0.26
- EC50 [3]: 36.4 nM and 34.9 nM and 37.1 nM
- pEC50 [3]: 7.44 and 7.46 and 7.43
- Curve bottom [4]: 0.90 and 0.95 and 0.88
- Curve slope [4]: 0.65 and 0.81 and 0.69
- Curve top [4]: 0.22 and 0.29 and 0.23
- EC50 [4]: 6.62 nM and 4.98 nM and 7.67 nM
- pEC50 [4]: 8.18 and 8.30 and 8.12
- Response [5]: 86.95 and 90.22 and 92.73
- Response [6]: 86.95 and 90.22
- Response [7]: 75.87 and 84.36
- Response [8]: 87.64 and 91.58 and 92.37
- Response [9]: 86.97 and 90.31
- Response [10]: 68.28 and 77.94
- Response [11]: 87.69 and 92.23
- Response [12]: 91.78 and 94.40 and 93.95
- Response [13]: 85.95 and 90.04
- Response [14]: 52.30 and 58.04
- Response [15]: 89.38 and 90.87
- Response [16]: 89.09 and 93.32 and 91.50
- Response [17]: 81.41 and 84.65
- Response [18]: 41.30 and 46.95
- Response [19]: 87.15 and 91.05
- Response [20]: 84.14 and 83.47 and 86.69
- Response [21]: 60.15 and 63.62
- Response [22]: 36.88 and 38.31
- Response [23]: 87.92 and 89.82
- Response [24]: 67.31 and 66.59 and 71.27
- Response [25]: 33.79 and 36.06
- Response [26]: 30.17 and 37.05
- Response [27]: 79.92 and 81.64
- Response [28]: 43.01 and 39.79 and 38.91
- Response [29]: 30.09 and 31.69
- Response [30]: 22.83 and 27.53
- Response [31]: 65.38 and 51.74
- Response [32]: 27.32 and 30.30 and 27.51
- Response [33]: 23.88 and 28.00
- Response [34]: 20.74 and 24.11
- Response [35]: 37.94 and 32.34
- Response [36]: 22.35 and 31.11 and 24.18
- Response [37]: 21.92 and 27.23 and 22.65
- Response [38]: 19.23 and 26.92
- Response [39]: 23.81 and 32.93
- Ratio [5]: 1.02 and 1.00 and 1.03
- Ratio [6]: 1.02 and 1.00
- Ratio [7]: 0.89 and 0.93
- Ratio [8]: 1.03 and 1.01 and 1.02
- Ratio [9]: 1.02 and 1.00
- Ratio [10]: 0.80 and 0.86
- Ratio [11]: 1.03 and 1.02
- Ratio [12]: 1.08 and 1.04
- Ratio [13]: 1.01 and 1.00
- Ratio [14]: 0.61 and 0.64
- Ratio [15]: 1.05 and 1.00
- Ratio [16]: 1.05 and 1.03 and 1.01
- Ratio [17]: 0.96 and 0.94
- Ratio [18]: 0.49 and 0.52
- Ratio [19]: 1.02 and 1.01
- Ratio [20]: 0.99 and 0.92 and 0.96
- Ratio [21]: 0.71 and 0.70
- Ratio [22]: 0.43 and 0.42
- Ratio [23]: 1.03 and 0.99
- Ratio [24]: 0.79 and 0.74
- Ratio [25]: 0.40
- Ratio [26]: 0.35 and 0.41
- Ratio [27]: 0.94 and 0.90
- Ratio [28]: 0.51 and 0.44 and 0.43
- Ratio [29]: 0.35
- Ratio [30]: 0.27 and 0.30
- Ratio [31]: 0.77 and 0.57
- Ratio [32]: 0.32 and 0.34 and 0.31
- Ratio [33]: 0.28 and 0.31
- Ratio [34]: 0.24 and 0.27
- Ratio [35]: 0.45 and 0.36
- Ratio [36]: 0.26 and 0.34 and 0.27
- Ratio [37]: 0.26 and 0.30 and 0.25
- Ratio [38]: 0.23 and 0.30
- Ratio [39]: 0.28 and 0.36
- Ratio (Response / Response vehicle (mean)) (chemodrug 1 nM + ATRi 10 nM): 1.00
- Response (chemodrug 1 nM + ATRi 10 nM): 89.91
- Ratio (Response / Response vehicle (mean)) (chemodrug 1 nM + ATRi 30 nM): 0.80
- Response (chemodrug 1 nM + ATRi 30 nM): 71.79
- Ratio (Response / Response vehicle (mean)) (chemodrug 1 nM alone (ATRi 0 nM)): 1.02
- Ratio (Response / Response vehicle (mean)) (chemodrug 3 nM + ATRi 10 nM): 0.99
- Response (chemodrug 3 nM + ATRi 10 nM): 89.48
- Ratio (Response / Response vehicle (mean)) (chemodrug 3 nM + ATRi 30 nM): 0.63
- Response (chemodrug 3 nM + ATRi 30 nM): 57.06
- Ratio (Response / Response vehicle (mean)) (chemodrug 3 nM alone (ATRi 0 nM)): 1.00
- Ratio (Response / Response vehicle (mean)) (chemodrug 10 nM + ATRi 10 nM): 0.89
- Response (chemodrug 10 nM + ATRi 10 nM): 80.53
- Ratio (Response / Response vehicle (mean)) (chemodrug 10 nM + ATRi 30 nM): 0.51
- Response (chemodrug 10 nM + ATRi 30 nM): 45.87
- Ratio (Response / Response vehicle (mean)) (chemodrug 10 nM alone (ATRi 0 nM)): 0.99
- Ratio (Response / Response vehicle (mean)) (chemodrug 30 nM + ATRi 10 nM): 0.69
- Response (chemodrug 30 nM + ATRi 10 nM): 62.02
- Ratio (Response / Response vehicle (mean)) (chemodrug 30 nM + ATRi 30 nM): 0.43
- Response (chemodrug 30 nM + ATRi 30 nM): 38.92
- Ratio (Response / Response vehicle (mean)) [40]: 1.03
- Response [40]: 92.93
- Ratio (Response / Response vehicle (mean)) (chemodrug 100 nM + ATRi 10 nM): 0.43
- Response (chemodrug 100 nM + ATRi 10 nM): 39.16
- Ratio (Response / Response vehicle (mean)) (chemodrug 100 nM + ATRi 30 nM): 0.35
- Response (chemodrug 100 nM + ATRi 30 nM): 31.50
- Ratio (Response / Response vehicle (mean)) [41]: 0.90
- Response [41]: 81.28
- Ratio (Response / Response vehicle (mean)) (chemodrug 300 nM + ATRi 10 nM): 0.31
- Response (chemodrug 300 nM + ATRi 10 nM): 28.30
- Ratio (Response / Response vehicle (mean)) (chemodrug 300 nM + ATRi 30 nM): 0.27
- Response (chemodrug 300 nM + ATRi 30 nM): 23.96
- Ratio (Response / Response vehicle (mean)) [42]: 0.65
- Response [42]: 58.52
- Ratio (Response / Response vehicle (mean)) (chemodrug 1000 nM + ATRi 10 nM): 0.29
- Response (chemodrug 1000 nM + ATRi 10 nM): 25.88
- Ratio (Response / Response vehicle (mean)) (chemodrug 1000 nM + ATRi 30 nM): 0.26
- Response (chemodrug 1000 nM + ATRi 30 nM): 23.54
- Ratio (Response / Response vehicle (mean)) [43]: 0.34
- Response [43]: 30.70
- Ratio (Response / Response vehicle (mean)) (chemodrug 3000 nM + ATRi 30 nM): 0.23
- Response (chemodrug 3000 nM + ATRi 30 nM): 20.88
- Ratio (Response / Response vehicle (mean)) [44]: 0.29
- Response [44]: 26.17
- sensitization of AsPC-1 cells to the chemodrug by Elimusertib (chemodrug + three sub-EC50 doses of Elimusertib): sensitized
- EC50 (read-out: EC50 mean, Experiment GEM (no ATRi), mean of R1-R3, repeated in each replicate line): 344 nM
- EC50 (read-out: EC50 mean, Experiment GEM+ATRi_dose1, mean of R1-R3, repeated in each replicate line): 147 nM
- EC50 (read-out: EC50 mean, Experiment GEM+ATRi_dose2, mean of R1-R3, repeated in each replicate line): 36.1 nM
- EC50 (read-out: EC50 mean, Experiment GEM+ATRi_dose3, mean of R1-R3, repeated in each replicate line): 6.42 nM
